Experimental data: patent US10611777B2, “Imidazopyridazine compounds and their use” (HUTCHISON MEDIPHARMA LIMITED, priority 2014, dated 2020)
Converted amounts (≈) assume the structure as drawn.

How the values were obtained:
[1] = test system: Wistar rats with established type II collagen-induced arthritis; experiment: Rat collagen II induced arthritis (CIA) model; assay type: in vivo
Procedure: Rat collagen induced arthritis is an experimental model of polyarthritis that has been widely used for nonclinical testing of numerous anti-arthritic agents that are either under nonclinical or clinical investigation or are currently used as therapeutics in this disease.
Wistar rats were immunized intradermally with 200 μg bovine collagen II emulsified in Freund's incomplete adjuvant (IFA, Sigma, US) on day 0 and day 7. The hind paw volumes were measured before and after the immunization. […] The naive group was not administered. YiSaiPu (10 mg/kg), a human tumor necrosis factor receptor p75 Fc fusion protein, was administered with intraperitoneal injection on days 10, 12 and 14 as a positive control. The study was terminated on day 18.

[2] = test system: anti-IgD induced B cell activation; experiment: Anti-IgD antibody induced B cells activation in rat whole blood (ex vivo after oral dosing)
Procedure: Activation of B cells (B220+) in rat whole blood with anti-IgD antibody leading to activation via Ig receptors is known to involve PI3K pathways and sensitive to modulation by PI3Kδ inhibitors. A pharmacodynamics assay was developed to assess activity of PI3Kδ inhibitors ex vivo following oral administration of inhibitors to rats.
Wistar rats (female, 6-8 weeks old) were used in the experiments. The dose dependency, time course study and PKPD relationship of compound 4 were conducted in normal Wistar rats. […] The control group (6 rats) was treated with the vehicle alone. […] The heparin anti-coagulated blood was mixed with anti-rat-IgD, then was incubated at 37° C. under 5% CO2 overnight. Fluorescence signal for CD86 on B220 (B cells) positive cells was detected using a flow cytometer (BD FACSCalibur, BD Biosciences) and data were analyzed by CellQuest software. Plasma was collected to measure compound 4 levels.

PI3K-α (p110α/p85α) = PI3K-α (p110α/p85α) (Homo sapiens (Human), UniProt P42336); experiment: Fluorescent determination of PI3K enzyme activity (Transcreener KINASE Assay), PI3K-α; assay type: biochemical; conditions: inhibition rate at 1 μM
Procedure: Inhibition rates were calculated as follow: IH %=(ADP amount under 2% DMSO well−ADP amount under test compound well)/ADP amount under 2% DMSO well×100%.

PI3K-β (p110β/p85α) = PI3K-β (p110β/p85α) (Homo sapiens (Human), UniProt P42338); experiment: Fluorescent determination of PI3K enzyme activity (Transcreener KINASE Assay), PI3K-β; assay type: biochemical; conditions: inhibition rate at 1 μM;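 also: Far-red fluorescence polarization immunoassay detecting ADP produced by the kinase, 80 min enzyme reaction at room temperature, inhibition relative to ADP formed in 2% DMSO control wells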
Procedure: (§1) PI3K kinases including p110α/p85α and p110γ were purchased from Invitrogen, p110δ/p85α and p110β/p85α were from Millipore.
(§2) It is a universal, homogenous, high throughput screening (HTS) technology using a far-red, competitive fluorescence polarization immunoassay based on the defection of ADP to monitor the activity of enzymes that catalyze group transfer reactions. […] The reaction mixture was added into desired wells of a 96-well plate. The plate was sealed and incubated for 80 min at room temperature. • 2) Next, 25 uL ADP detection mix was added into each well. The plate was sealed again and incubated for 60 min at room temperature. Then fluorescence polarization was measured by Tecan Infinite F500 Reader.
(§3) Data was analyzed and IC50 values were generated using the add-in software for Microsoft Excel, Xlfit™ (version 5.3).

[3] = test system: AKT phosphorylation (p-AKT Ser473) in Ramos cells; experiment: Inhibition of AKT phosphorylation in Ramos cell line; assay type: cell-based; conditions: anti-IgM stimulated
Procedure: 6×10^4/mL Ramos cells (ATCC, CRL-1596; cells were cultured in RPMI1640 media with 10% FBS) were seeded into a 96-well plate (Bookman Dickinson, No. 356692) at 80 uL/well, 4,800 cells/well. After incubations for 3 hr at 37° C. under 5% CO2, Ramos cells were treated with 10 uL/well various concentrations of test compound (final concentrations of the test compound: 1 uM, 0.3 uM, 0.1 uM, 0.037 uM, 0.012 uM, 0.0041 uM, 0.0014 uM and 0.0005 uM) or 0.3% DMSO for 30 min, and then were stimulated with 10 uL/well 1 ug/ml Anti-IgM (Jackson Immunoresearch, 709-006-073) for 15-20 min. • 1) Cells were fixed with 100 μL of 4% pre-warmed Paraformaldehyde (2% final concentration), and incubated for 45 min at room temperature. • 2) The paraformaldehyde solution was removed. 100 μL of ice-cold methanol was added into each well and the plate was left at 4° C. for 30 min. • 3) The cells were washed for three times with 160 μPBS. • 4) 40 μL 1:350 dilution of Rabbit anti-p-AKT(Ser^473) antibody (Cell Signaling Technology, 4060 L) in antibody dilution buffer (1% BSA, in PBS) were added into each well. […]
as §3

SU-DHL-6 cell line = experiment: In vitro cell proliferation assay in SU-DHL-6 cell line; assay type: cell-based; conditions: SU-DHL-6, 72 h, CCK-8
Procedure: Growth inhibition assays were carried out using 10% FBS supplemented media. Cells were seeded at a concentration of 15000 cells/well in a 96-well plate. Test compound dilution at different concentrations (final concentrations of the test compound: 1 uM, 0.3 uM, 0.1 uM, 0.037 uM, 0.012 uM, 0.0041 uM, 0.0014 uM and 0.0005 uM) were added after 24 hours. Growth was assessed using Cell Counting Kit-8 (CCK-8) (Dojindo, Cat # CK04) after the test compound were incubated for 72 h. Absorbance was read at the wave length 450 nm on Multiskan MK3 machine (Thermo).
as §3

PI3K-δ (p110δ/p85α) = PI3K-δ (p110δ/p85α) (Homo sapiens (Human), UniProt O00329); experiment: Fluorescent determination of PI3K enzyme activity (Transcreener KINASE Assay), PI3K-δ; assay type: biochemical; conditions: for PI3K-δ IH%: inhibition rate at 1 μM
Procedure: as §1, §2, §3

PI3K-γ (p110γ) = PI3K-γ (p110γ) (Homo sapiens (Human), UniProt P48736); experiment: Fluorescent determination of PI3K enzyme activity (Transcreener KINASE Assay), PI3K-γ; assay type: biochemical; conditions: for PI3K-γ IH%: inhibition rate at 1 μM;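 as to all read-outs here: p110γ enzyme reaction for 80 min at room temperature, ADP formed measured by far-red competitive fluorescence polarization immunoassay, inhibition relative to wells with 2% DMSO only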
Procedure: as §1, §2, §3

[4] = test system: PI3Kδ signaling in basophils from human whole blood; experiment: Inhibition of PI3Kδ signaling in basophils from human whole blood; assay type: cell-based; conditions: anti-IgE stimulated, CD63
Procedure: • 1) Heparinized human whole blood was mixed and pipetted into the 96 well v-bottom plate, 100 μL per well. • 2) 10 μL of stimulation buffer (1 mg/mL stock, final concentration of Recombinant human IL-3; 20 ng/mL) was added to the whole blood samples of each well and vortex gently. The samples were incubated for 20 min at 37° C. • 3) 10 uL/well of test compound dilution (final concentrations of the test compound in well: 1 uM, 0.3 uM, 0.1 uM, 0.037 uM, 0.012 uM, 0.0041 uM, 0.0014 uM and 0.0005 uM) or vehicle (0.2% DMSO) was added into each well of the plate and the plate was incubated for 1.5 h at 37° C. • 4) 100 μL of the Goat anti-human IgE (1 mg/mL stock, final concentration of IgE: 0.31 ug/mL) working solution was added into each well of the plate. Vortex all the wells once more and incubate for 20 min at 37° C. • 5) Labeling with staining antibody: Degranulation was stopped by incubating the samples on ice for 5 min. 6 μL of staining antibody mixture (anti-CD63-FITC and anti-IgE-PE) was added into each well. […] The plate was incubated in a covered ice bath until analysis. • 10) Flow cytometric analysis: Cells were analyzed by flow cytometry using the blue-green excitation light (488 nm argon-ion laser, FACSCalibur, CELLQuest software).
as §3

Chain of PI3K-α (p110α/p85α) (P42336 whole entry, species assumed): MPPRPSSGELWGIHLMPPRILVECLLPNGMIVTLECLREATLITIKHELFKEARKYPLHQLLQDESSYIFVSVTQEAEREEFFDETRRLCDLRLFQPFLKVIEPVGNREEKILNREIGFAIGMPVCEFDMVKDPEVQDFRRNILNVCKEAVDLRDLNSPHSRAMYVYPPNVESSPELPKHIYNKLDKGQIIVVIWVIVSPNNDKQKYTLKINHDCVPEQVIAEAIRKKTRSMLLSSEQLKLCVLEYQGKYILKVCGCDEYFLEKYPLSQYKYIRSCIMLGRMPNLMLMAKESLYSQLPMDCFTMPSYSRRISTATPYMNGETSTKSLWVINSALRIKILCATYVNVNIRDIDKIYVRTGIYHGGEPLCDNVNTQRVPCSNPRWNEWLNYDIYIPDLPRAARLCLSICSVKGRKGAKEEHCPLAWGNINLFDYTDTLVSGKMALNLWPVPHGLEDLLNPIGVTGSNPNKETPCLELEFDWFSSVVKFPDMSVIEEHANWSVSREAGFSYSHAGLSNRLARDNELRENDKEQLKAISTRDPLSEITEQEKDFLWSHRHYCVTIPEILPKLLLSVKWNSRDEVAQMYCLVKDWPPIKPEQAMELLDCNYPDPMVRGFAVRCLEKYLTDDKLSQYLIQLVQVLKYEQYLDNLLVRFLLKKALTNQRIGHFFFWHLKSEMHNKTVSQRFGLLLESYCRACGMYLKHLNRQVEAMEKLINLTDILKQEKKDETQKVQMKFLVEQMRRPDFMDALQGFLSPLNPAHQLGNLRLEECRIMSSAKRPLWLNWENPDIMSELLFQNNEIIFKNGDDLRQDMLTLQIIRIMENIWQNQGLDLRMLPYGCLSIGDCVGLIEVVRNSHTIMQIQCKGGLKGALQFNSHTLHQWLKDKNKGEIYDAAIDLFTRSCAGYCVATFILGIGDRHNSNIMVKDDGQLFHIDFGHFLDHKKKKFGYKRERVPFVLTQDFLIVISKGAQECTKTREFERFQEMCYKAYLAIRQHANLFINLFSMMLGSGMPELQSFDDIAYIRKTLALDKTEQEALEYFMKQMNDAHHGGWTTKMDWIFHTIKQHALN
Chain of PI3K-α (p110α/p85α) (P27986 whole entry partner, species assumed): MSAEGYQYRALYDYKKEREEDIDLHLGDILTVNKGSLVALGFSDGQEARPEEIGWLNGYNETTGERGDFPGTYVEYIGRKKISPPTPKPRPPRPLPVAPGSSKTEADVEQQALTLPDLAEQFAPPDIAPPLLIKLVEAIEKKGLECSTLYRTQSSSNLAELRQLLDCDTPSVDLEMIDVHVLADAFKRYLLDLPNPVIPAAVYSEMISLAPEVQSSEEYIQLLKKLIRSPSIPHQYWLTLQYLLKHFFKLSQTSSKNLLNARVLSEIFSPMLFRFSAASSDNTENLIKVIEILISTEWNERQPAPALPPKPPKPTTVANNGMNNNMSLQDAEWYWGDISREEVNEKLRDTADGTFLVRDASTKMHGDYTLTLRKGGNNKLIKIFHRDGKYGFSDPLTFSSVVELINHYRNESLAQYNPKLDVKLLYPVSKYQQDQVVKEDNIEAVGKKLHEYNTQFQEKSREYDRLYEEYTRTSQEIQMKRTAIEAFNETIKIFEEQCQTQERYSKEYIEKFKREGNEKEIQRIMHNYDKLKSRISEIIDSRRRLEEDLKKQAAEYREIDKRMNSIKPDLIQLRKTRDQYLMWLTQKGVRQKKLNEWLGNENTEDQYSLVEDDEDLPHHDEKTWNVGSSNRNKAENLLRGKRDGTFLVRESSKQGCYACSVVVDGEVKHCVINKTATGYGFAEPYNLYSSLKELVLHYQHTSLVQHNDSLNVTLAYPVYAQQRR
Chain of PI3K-γ (p110γ) (P48736 whole entry, species assumed): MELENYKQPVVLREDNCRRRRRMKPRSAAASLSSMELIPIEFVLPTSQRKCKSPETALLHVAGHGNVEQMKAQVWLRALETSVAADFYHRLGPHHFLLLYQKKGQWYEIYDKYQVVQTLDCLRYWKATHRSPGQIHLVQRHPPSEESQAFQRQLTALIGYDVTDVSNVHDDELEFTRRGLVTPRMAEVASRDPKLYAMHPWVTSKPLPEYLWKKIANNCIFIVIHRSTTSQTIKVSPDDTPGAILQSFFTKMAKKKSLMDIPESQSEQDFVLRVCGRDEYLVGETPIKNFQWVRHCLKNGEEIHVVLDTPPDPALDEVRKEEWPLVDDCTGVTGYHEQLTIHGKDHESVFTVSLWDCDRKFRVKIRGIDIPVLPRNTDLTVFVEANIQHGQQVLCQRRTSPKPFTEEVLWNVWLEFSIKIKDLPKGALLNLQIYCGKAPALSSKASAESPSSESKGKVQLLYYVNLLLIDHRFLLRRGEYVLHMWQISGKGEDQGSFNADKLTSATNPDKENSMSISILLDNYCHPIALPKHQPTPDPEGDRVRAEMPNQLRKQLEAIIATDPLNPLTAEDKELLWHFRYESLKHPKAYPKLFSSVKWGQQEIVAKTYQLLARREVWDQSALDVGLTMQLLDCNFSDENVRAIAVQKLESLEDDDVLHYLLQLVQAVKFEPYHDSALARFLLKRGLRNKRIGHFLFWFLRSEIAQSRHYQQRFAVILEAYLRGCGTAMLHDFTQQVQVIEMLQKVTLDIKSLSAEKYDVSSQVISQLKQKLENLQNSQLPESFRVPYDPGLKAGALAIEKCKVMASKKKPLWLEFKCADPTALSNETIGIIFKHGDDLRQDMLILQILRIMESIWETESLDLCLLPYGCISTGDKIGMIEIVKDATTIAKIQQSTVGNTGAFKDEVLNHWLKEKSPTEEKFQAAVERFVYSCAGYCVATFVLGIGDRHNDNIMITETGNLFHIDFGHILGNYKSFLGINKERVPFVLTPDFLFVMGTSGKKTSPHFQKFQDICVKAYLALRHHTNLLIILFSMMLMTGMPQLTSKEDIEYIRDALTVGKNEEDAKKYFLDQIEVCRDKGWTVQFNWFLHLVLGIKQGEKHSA
Chain of PI3K-β (p110β/p85α) (P42338 whole entry, species assumed): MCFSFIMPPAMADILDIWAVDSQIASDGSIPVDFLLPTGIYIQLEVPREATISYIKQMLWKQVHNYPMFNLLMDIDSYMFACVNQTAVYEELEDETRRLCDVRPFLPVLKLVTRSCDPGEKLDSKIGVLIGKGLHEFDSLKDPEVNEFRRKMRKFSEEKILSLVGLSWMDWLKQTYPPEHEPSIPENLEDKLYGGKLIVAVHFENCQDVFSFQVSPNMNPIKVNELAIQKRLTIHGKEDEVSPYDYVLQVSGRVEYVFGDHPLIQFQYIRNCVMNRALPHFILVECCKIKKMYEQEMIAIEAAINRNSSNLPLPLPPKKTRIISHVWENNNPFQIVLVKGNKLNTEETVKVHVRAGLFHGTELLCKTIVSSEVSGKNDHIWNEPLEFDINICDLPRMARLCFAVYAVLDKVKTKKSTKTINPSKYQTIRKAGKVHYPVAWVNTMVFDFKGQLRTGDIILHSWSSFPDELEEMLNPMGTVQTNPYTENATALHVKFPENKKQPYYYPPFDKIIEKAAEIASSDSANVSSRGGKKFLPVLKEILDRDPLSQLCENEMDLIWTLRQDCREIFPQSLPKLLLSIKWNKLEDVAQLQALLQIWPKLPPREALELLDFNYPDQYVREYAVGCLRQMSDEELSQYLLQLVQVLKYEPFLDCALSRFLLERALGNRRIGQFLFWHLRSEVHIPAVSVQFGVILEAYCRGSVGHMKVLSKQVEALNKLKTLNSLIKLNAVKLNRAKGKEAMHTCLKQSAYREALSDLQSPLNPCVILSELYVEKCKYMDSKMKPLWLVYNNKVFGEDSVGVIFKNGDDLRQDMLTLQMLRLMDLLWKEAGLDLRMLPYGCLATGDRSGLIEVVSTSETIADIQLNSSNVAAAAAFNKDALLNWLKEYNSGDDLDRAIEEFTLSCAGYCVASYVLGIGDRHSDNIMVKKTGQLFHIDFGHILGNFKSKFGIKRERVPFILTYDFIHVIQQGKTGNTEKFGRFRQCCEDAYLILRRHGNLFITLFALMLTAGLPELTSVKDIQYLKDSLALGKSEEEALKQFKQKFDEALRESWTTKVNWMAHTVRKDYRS
Chain of PI3K-β (p110β/p85α) (P27986 whole entry partner, species assumed): as the sequence (P27986 whole entry partner, species assumed) above
Chain of PI3K-δ (p110δ/p85α) (O00329 whole entry, species assumed): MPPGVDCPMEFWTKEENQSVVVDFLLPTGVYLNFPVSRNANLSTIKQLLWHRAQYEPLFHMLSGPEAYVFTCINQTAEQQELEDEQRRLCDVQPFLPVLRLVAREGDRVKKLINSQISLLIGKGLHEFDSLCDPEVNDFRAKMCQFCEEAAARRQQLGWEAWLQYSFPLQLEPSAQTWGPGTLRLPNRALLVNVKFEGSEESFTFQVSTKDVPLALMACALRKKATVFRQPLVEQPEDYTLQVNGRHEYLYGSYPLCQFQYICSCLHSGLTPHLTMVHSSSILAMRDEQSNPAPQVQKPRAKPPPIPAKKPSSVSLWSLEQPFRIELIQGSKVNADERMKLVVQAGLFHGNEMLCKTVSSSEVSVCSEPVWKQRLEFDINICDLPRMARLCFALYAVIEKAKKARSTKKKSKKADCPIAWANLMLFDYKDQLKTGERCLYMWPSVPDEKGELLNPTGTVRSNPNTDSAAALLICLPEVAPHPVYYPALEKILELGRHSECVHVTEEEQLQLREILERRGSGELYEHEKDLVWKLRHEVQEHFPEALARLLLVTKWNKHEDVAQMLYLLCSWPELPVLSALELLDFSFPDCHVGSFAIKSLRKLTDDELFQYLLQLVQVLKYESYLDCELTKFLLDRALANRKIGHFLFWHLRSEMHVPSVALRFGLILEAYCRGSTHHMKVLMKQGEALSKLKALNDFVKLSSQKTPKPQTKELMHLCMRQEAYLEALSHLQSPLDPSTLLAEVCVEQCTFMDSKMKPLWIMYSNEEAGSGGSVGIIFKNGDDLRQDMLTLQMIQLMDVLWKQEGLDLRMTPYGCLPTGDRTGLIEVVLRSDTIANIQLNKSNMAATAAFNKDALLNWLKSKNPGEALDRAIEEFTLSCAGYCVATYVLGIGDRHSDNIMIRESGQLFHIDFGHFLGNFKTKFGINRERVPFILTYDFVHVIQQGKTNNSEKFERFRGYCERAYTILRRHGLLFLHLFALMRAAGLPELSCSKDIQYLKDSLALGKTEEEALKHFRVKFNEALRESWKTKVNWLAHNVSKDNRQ
Chain of PI3K-δ (p110δ/p85α) (P27986 whole entry partner, species assumed): as the sequence (P27986 whole entry partner, species assumed) above

In the case of `C[C@H](Nc1ncnc(N)c1C#N)c1cc2ncc(Cl)n2nc1-c1ccccc1` [Compound 4, (S)-4-amino-6-((1-(3-chloro-6-phenylimidazo[1,2-b]pyridazin-7-yl)ethyl)amino)pyrimidine-5-carbonitrile], the “mean paw volume at the end of the treatment period compared to vehicle-treated diseased animals” value ([1]; PO QD days 10-16, p<0.01, all doses except lowest dose 0.03 mg/kg) is reported as “significantly decreased”, the “effects on the parameters associated with established type II collagen-induced arthritis” value ([1]; daily oral treatment) is reported as “dose-dependent beneficial effects” and the EC50 ([2]; Rattus norvegicus, B-cell, po, at 2 hr post-dose, read-out: EC50 (corresponding plasma concentration)) is reported as 1.49 ng/mL (≈ 3.8 nM). The “anti-IgD induced B cell activation in rat whole blood, ex vivo” value ([2]; oral, dose range 0.01 to 3 mg/kg, p<0.01) was “inhibited anti-IgD induced B cell activation in rat whole blood, ex vivo, in a dose- and time-dependent manner”.

With `C[C@H](Nc1ncnc(N)c1-c1nn[nH]n1)c1cc2ncc(Cl)n2nc1-c1ccccc1` [Compound 21] the “PI3K-α IH%” value (PI3K-α (p110α/p85α)) was 21.7%.

`Cc1cnc2cc([C@H](C)Nc3ncnc(N)c3C#N)c(-c3ccccc3)nn12` [Compound 22] was tested, and the “PI3K-α IH%” value (PI3K-α (p110α/p85α)) was 13.6% and the “PI3K-β IH%” value (PI3K-β (p110β/p85α)) was 76.7%.

`Cc1cnc2cc([C@H](C)Nc3ncnc4[nH]cnc34)c(-c3ccccc3)nn12` [Compound 23] was tested, and the “PI3K-α IH%” value (PI3K-α (p110α/p85α)) was 3.2%, the “PI3K-β IH%” value (PI3K-β (p110β/p85α)) was 28.7% and the IC50 [3] was 12 nM. The IC50 (SU-DHL-6 cell line) was 78 nM.

`CCC(Nc1ncnc(N)c1C#N)c1cc2ncc(Cl)n2nc1-c1ccccn1` (stereo not drawn) [Compound 28] was tested, and the “PI3K-β IH%” value (PI3K-β (p110β/p85α)) was 11.1%, the “PI3K-δ IH%” value (PI3K-δ (p110δ/p85α)) was 39.8% and the “PI3K-γ IH%” value (PI3K-γ (p110γ)) was 18.8%.

`C[C@H](Nc1nc(N)ncc1C#N)c1cc2ncc(Cl)n2nc1-c1ccccc1` [Compound 34] was tested, and the “PI3K-β IH%” value (PI3K-β (p110β/p85α)) was 3.7%, the “PI3K-δ IH%” value (PI3K-δ (p110δ/p85α)) was 8.3% and the “PI3K-γ IH%” value (PI3K-γ (p110γ)) was −19.3%.

In the case of `COc1cc(-c2c(N)ncnc2N[C@@H](C)c2cc3ncc(Cl)n3nc2-c2ccccc2)ccn1` [Compound 50], the “PI3K-β IH%” value (PI3K-β (p110β/p85α)) is reported as −14.1%, the “PI3K-δ IH%” value (PI3K-δ (p110δ/p85α)) is reported as 68.9% and the “PI3K-γ IH%” value (PI3K-γ (p110γ)) is reported as 5.5%.

In the case of `C[C@H](Nc1nc(O)nc(N)c1C#N)c1cc2ncc(Cl)n2nc1-c1ccccc1` [Compound 55, (S)-4-amino-6-((1-(3-chloro-6-phenylimidazo[1,2-b]pyridazin-7-yl)ethyl)amino)-2-hydroxypyrimidine-5-carbonitrile], the “PI3K-β IH%” value (PI3K-β (p110β/p85α)) is reported as 8.5%, the “PI3K-δ IH%” value (PI3K-δ (p110δ/p85α)) is reported as 60.3% and the “PI3K-γ IH%” value (PI3K-γ (p110γ)) is reported as −4.7%.

With `C[C@H](Nc1ncnc(N)c1C(=O)N(C)C)c1cc2ncc(Cl)n2nc1-c1ccccc1` [Compound 56] the “PI3K-β IH%” value (PI3K-β (p110β/p85α)) was 9.0%, the “PI3K-δ IH%” value (PI3K-δ (p110δ/p85α)) was 21.0% and the “PI3K-γ IH%” value (PI3K-γ (p110γ)) was 1.0%.

For `C[C@H](Nc1ncnc(N)c1C#N)c1cc2ncc(Cl)n2nc1-c1ccc2c(c1)OCCO2` [Compound 70], the “PI3K-β IH%” value (PI3K-β (p110β/p85α)) was 37.4%, the IC50 (PI3K-δ (p110δ/p85α)) was 22 nM and the IC50 (PI3K-γ (p110γ); read-out: PI3K-γ IC50) was 1980 nM.

In the case of `C[C@@H](Nc1ncnc(N)c1C#N)c1cc2ncc(Cl)n2nc1-c1ccc2scnc2c1` [Compound 75], the “PI3K-β IH%” value (PI3K-β (p110β/p85α)) is reported as −7.1%, the “PI3K-δ IH%” value (PI3K-δ (p110δ/p85α)) is reported as 1.0% and the “PI3K-γ IH%” value (PI3K-γ (p110γ)) is reported as 31.7%.

`C[C@H](Nc1ncnc(N)c1C#N)c1cc2ncc(Cl)n2nc1-c1ccc2ccn(C)c2c1` [Compound 76] was tested, and the “PI3K-β IH%” value (PI3K-β (p110β/p85α)) was 54.9%, the “PI3K-δ IH%” value (PI3K-δ (p110δ/p85α)) was 48.9% and the “PI3K-γ IH%” value (PI3K-γ (p110γ)) was −14.3%.

`C[C@H](Nc1ncnc(N)c1C#N)c1cc2ncc(F)n2nc1-c1ccccc1` [Compound 78, (S)-4-amino-6-((1-(3-fluoro-6-phenylimidazo[1,2-b]pyridazin-7-yl)ethyl)amino)pyrimidine-5-carbonitrile] was tested, and the “PI3K-β IH%” value (PI3K-β (p110β/p85α)) was 50.1%, the IC50 [4] was 10 nM and the IC50 (PI3K-δ (p110δ/p85α)) was 1 nM. It also gave an IC50 ([3]; Homo sapiens) of 7 nM.
